From ChEMBL document CHEMBL1201862, “PubChem BioAssay data set” (2004)
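Growth conditions: 96-well plates. Treatment: test compound, 48 hours, 5 concentrations. Analysis: linear interpolation between bracketing concentrations; unreached endpoints set to highest concentration. The concentration for 50% growth inhibition is given as GI50.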 Activity calls are given as the source filed them. Cut-off read from the data, not from the text of the source: active = GI50 up to about 1.1 µM and inactive = higher.

What was measured:
Assay in all cases: NCI tumour cell line growth inhibition, 48 h
OVCAR-4 = system: OVCAR-4
UACC-257 = system: UACC-257
OVCAR-3 = system: OVCAR-3
K562 = system: K562
Malme-3M = system: Malme-3M
MOLT-4 = system: MOLT-4
PC-3 = system: PC-3
HL-60 = system: HL-60
NCI-H460 = system: NCI-H460
HCC 2998 = system: HCC 2998
SR = system: SR
HCT-15 = system: HCT-15
SK-MEL-2 = system: SK-MEL-2
HT-29 = system: HT-29
SF-268 = system: SF-268
SK-MEL-5 = system: SK-MEL-5
A549 = system: A549
MDA-N = system: MDA-N
NCI/ADR-RES = system: NCI/ADR-RES

SMILES	GI50 (OVCAR-4)	GI50 (UACC-257)	GI50 (OVCAR-3)	GI50 (K562)	GI50 (Malme-3M)	GI50 (MOLT-4)	GI50 (PC-3)	GI50 (HL-60)	GI50 (NCI-H460)	GI50 (HCC 2998)	GI50 (SR)	GI50 (HCT-15) [µM]	GI50 (SK-MEL-2)	GI50 (HT-29)	GI50 (SF-268)	GI50 (SK-MEL-5)	GI50 (A549)	GI50 (MDA-N)	GI50 (NCI/ADR-RES)
N#C/C(N)=C(C#N)/N=C/Nc1ccccc1N	> 100 µM (inactive)	> 100 µM (inactive)	> 100 µM (inactive)	> 100 µM (inactive)	> 100 µM (inactive)	> 100 µM (inactive)	> 100 µM (inactive)	> 100 µM (inactive)	> 100 µM (inactive)	> 100 µM (inactive)	> 100 µM (inactive)	> 100	> 100 µM (inactive)	> 100 µM (inactive)	> 100 µM (inactive)	> 100 µM (inactive)	> 100 µM (inactive)	> 100 µM (inactive)	> 100 µM (inactive)
CC1Cc2cc(O)ccc2C2[C@@H]1C1CC[C@H](O)[C@@]1(C)C[C@@H]2O[N+](=O)[O-] (some centres not stated)	26.7 µM (inactive)	13 µM (inactive)	9.12 µM (inactive)	3.79 µM (inactive)	10.7 µM (inactive)	7.48 µM (inactive)	20.1 µM (inactive)	2.79 µM (inactive)	9.35 µM (inactive)	5.48 µM (inactive)	5.56 µM (inactive)	5.18	5.46 µM (inactive)	16 µM (inactive)	16.2 µM (inactive)	4.93 µM (inactive)	11 µM (inactive)	1.96 µM (inactive)	3.82 µM (inactive)
COC(=O)C1SC(N(C)c2ccccc2)=NC12c1ccccc1Nc1ccccc12 (configuration not stated)	19.7 µM (inactive)	25.2 µM (inactive)	11 µM (inactive)	15.1 µM (inactive)	15.8 µM (inactive)	7.31 µM (inactive)	16.3 µM (inactive)	12.7 µM (inactive)	10.8 µM (inactive)	20.5 µM (inactive)	15.3 µM (inactive)	13.6	15.5 µM (inactive)	19.3 µM (inactive)	21 µM (inactive)	12.9 µM (inactive)	20.3 µM (inactive)	23.1 µM (inactive)	13.5 µM (inactive)
O=C(c1c(F)c(F)c(F)c(F)c1F)N1CCN(C(=O)c2c(F)c(F)c(F)c(F)c2F)C1=S	5.22 µM (inactive)	8.34 µM (inactive)	5.08 µM (inactive)	1.96 µM (inactive)	4.58 µM (inactive)	2.77 µM (inactive)	7.67 µM (inactive)	1.07 µM (active)	10.7 µM (inactive)	9.57 µM (inactive)	3.38 µM (inactive)	2.2	2.11 µM (inactive)	5.48 µM (inactive)	11.3 µM (inactive)	6.9 µM (inactive)	14.4 µM (inactive)	2.48 µM (inactive)	7.33 µM (inactive)
CCN1CCN(c2nc3ccccc3c3c2CCOc2ccccc2-3)CC1	> 53.2 µM (inactive)	18.1 µM (inactive)	> 69 µM (inactive)	18.1 µM (inactive)	17.2 µM (inactive)	10.6 µM (inactive)	32.7 µM (inactive)	1.05 µM (active)	27.2 µM (inactive)	18.6 µM (inactive)	2.85 µM (inactive)	16.6	27.4 µM (inactive)	> 31 µM (inactive)	39.1 µM (inactive)	15 µM (inactive)	45.8 µM (inactive)	25.7 µM (inactive)	> 46.3 µM (inactive)
NC1CCC(N(CC(=O)O)CC(=O)O)C(N(CC(=O)O)CC(=O)O)C1 (configuration not stated)	> 100 µM (inactive)	> 10 µM (inactive)	> 100 µM (inactive)	> 100 µM (inactive)	> 100 µM (inactive)	> 100 µM (inactive)	> 100 µM (inactive)	> 100 µM (inactive)	> 100 µM (inactive)	> 100 µM (inactive)	> 100 µM (inactive)	> 100	> 100 µM (inactive)	> 100 µM (inactive)	> 100 µM (inactive)	> 100 µM (inactive)	> 100 µM (inactive)	> 100 µM (inactive)	> 100 µM (inactive)
Nc1nc(N)c2c3c(cnc2n1)CC(c1ccccc1)CC3 (configuration not stated)	14.3 µM (inactive)	65.3 µM (inactive)	31 µM (inactive)	0.875 µM (active)	31.5 µM (inactive)	50.5 µM (inactive)	21.9 µM (inactive)	6.43 µM (inactive)	3.66 µM (inactive)	34 µM (inactive)	10.6 µM (inactive)	4.04	32.3 µM (inactive)	5.66 µM (inactive)	11.9 µM (inactive)	1.01 µM (active)	2.03 µM (inactive)	3.7 µM (inactive)	20.3 µM (inactive)
COc1cc2c(cc1OC)C(=O)N(c1ccc(O)cc1)C2=O	> 100 µM (inactive)	> 100 µM (inactive)	> 100 µM (inactive)	> 100 µM (inactive)	> 100 µM (inactive)	> 100 µM (inactive)	> 100 µM (inactive)	> 100 µM (inactive)	> 100 µM (inactive)	> 100 µM (inactive)	> 100 µM (inactive)	> 100	> 100 µM (inactive)	> 100 µM (inactive)	> 100 µM (inactive)	> 100 µM (inactive)	> 100 µM (inactive)	> 100 µM (inactive)	> 100 µM (inactive)
